According to patent US20090092740A1, “METHOD FOR INCREASING LONG-TERM STORAGE OF CUT FLOWERS” (GREENOY LTD., priority 2006, published 2009):

Tested on: cut Rose Flowers (Akito and Red One varieties)
Details: several ppm in acrylic emulsion (tested 0.8 to 11.2 ppm); stored at 2° C. for one month; FIG. 1
Method: The flowers were dipped in several emulsions that included several concentration of STS (diluted from 8 g/l by taking from 0.1 to 1.4 ml per liter), ranging from 0.8 to 11.2 ppm. A bunch of roses, flowers and leaves, was dipped in the solution at each concentration for 2 seconds three times. Each treatment included 10 flowers. After the dip process, the flowers were put on a net for 10 minutes, so that an excess solution could drain off. The flowers were kept in an impregnation box at 2° C. for one month, and then they were allocated in vases for quality and shelf life assessments. The quality and appearance of the flowers were checked every day (FIG. 1).

silver thiosulfate
quality of the stored roses: improves the quality of the stored roses
